From patent US8158667B2, “Topical treatment of cataracts in dogs” (priority 2006, dated 2012)

Assays:
[1] = systemic half-life in dogs; settings: dog, in vivo
Excerpt: Topical administration of the ARI 2R,4S-6-fluoro-2-methyl-spiro[chroman-4,4′-imidazolidine]-2′,5′-dione (2-MS) is the preferred method for preventing cataracts and ocular complications in diabetic dogs and cats. As a result of the short, 3 hr systemic half-life of 2-MS in dogs and subsequent studies conducted in galactose-fed dogs, it is estimated that, at minimum, a multiple 4-times/day oral dose is required for efficacy. Topical application permits a lower dosage and a lower frequency of administration. Topical application will also minimize the tendency of diabetic dogs to have their liver functions compromised because topical administration will bypass first pass liver metabolism. The topical treatment of the present invention will not only arrest the progression of sugar cataracts, but also reduces the density of early cortical cataracts. […] The topical treatment should also delay the formation of other ocular diabetes associated complications associated with aldose reductase, as summarized above.

[2] = stability of 2R-MS in carbomer gel emulsion; assay type: physicochemical; settings: room temperature
Experimental: To maximize the topical administration of 2R-MS, vehicles or carriers of different viscosities comprised of polymers, gums, or viscosity enhancers were prepared. Formulations containing 3% of the AR inhibitor 2R-MS were prepared using the five different vehicles, which included 0.5% hydroxypropyl methylcellulose (HPMC); 0.5% xanthan gum; 0.5% gellan gum; 0.25% carbopol; and 0.25% carbopol (0.25% w/v)+0.25% HPMC. All were prepared in modified Sorensen's Phosphate Buffer, pH of 7.4. The drug and each vehicle were suspended directly in a sterile eye drop bottle by vortexing vigorously for at least one minute. […] All suspensions were vortexed prior to topical administration. An additional topical carbomer gel formulation consisting of 2.5% water soluble high molecular weight polymer of acrylic acid cross-linked with a polyether of sucrose was also developed. Carbomers are widely used in products for the treatment of dry eye. Crystalline 2R-MS was ground into a fine powder and mixed into an emulsion according to standard techniques.

accumulation of sorbitol = settings: fold more effective than sorbinil; '704 patent; cited from earlier work
aldose reductase = aldose reductase (Homo sapiens, UniProt P15121); settings: '704 patent; cited from earlier work

Row | Structure (SMILES) | half-life [1] [h] | stability in the emulsion [2] | effectiveness in preventing the accumulation of sorbitol relative to sorbinil (accumulation of sorbitol) | inhibiting aldose reductase, compared with sorbinil (aldose reductase)
1 | C[C@@H]1C[C@]2(NC(=O)NC2=O)c2cc(F)ccc2O1 [2R-MS, 2R,4S-6-fluoro-2-methyl-spiro[chroman-4,4′-imidazolidine]-2′,5′-dione] | 3 | stable in the emulsion for a minimum of ten months | – | –
2 | CC1CC2(NC(=O)NC2=O)c2cc(F)ccc2O1 (stereo not shown) [2-methyl sorbinil, 6-fluoro-2-methyl-spiro-[chroman-4,4′-imidazolidine]-2′,5′-dione] | – | – | 2-10 times | more effective in inhibiting aldose reductase
